Here are results for 1 molecule from patent publication US20060167099A1, “Use of compositions that increase glutamate receptor activity in treatment of brain injury” (priority 2004, published 2006).

The structures appear in SMILES notation. Entries after “also recorded” stand apart in the source; their conditions may differ.

Series [1] has as its system NMDAR. The following applies: NMDA 20 mg/kg i.p. 1 and 2 days after CHI; assessed 7 and 14 days postinjury (P=0.05 and 0.016). From the text:
Trauma Model. We used 8- to 12-week-old male Sabra mice (30-35 g) kept under controlled temperature and light conditions with food and water available ad libitum. The study was approved by the Institutional Animal Care Committee of the Hebrew University. Experimental CHI was induced by using a modified weight-drop device developed in our laboratory (Chen et al., J. Neurotrauma 13, 557-568 (1996); Yatziv et al., J. Cereb. Blood Flow Metab. 22, 971-978 (2002)). Briefly, after induction of ether anesthesia, a midline longitudinal incision was performed, the skin was retracted and the skull was exposed. The left anterior frontal area was identified and a Teflon tipped cone (2-mm diameter) was placed 1 mm lateral to the midline, in the midcoronal plane. The head was held in place manually and a 75-g weight was dropped on the cone from a height of 18 cm, resulting in a focal injury to the left hemisphere. After trauma, the mice received supporting oxygenation with 95% O2 for no longer than 2 min and were then returned to their cages. […]
(§1) Drug Treatments. […] The three groups were repeatedly evaluated for neurobehavioral deficits over a 2-week period (see below). […] Cognitive function was evaluated in head-injured and intact […] administered with either NMDA 20 mg/kg or saline 24 and again 48 h postinjury and tested 14 days later for performance in the object recognition test (see below).

The next series concerns intact mice. Kind of series: NMDA dose-response experiment in intact mice (tolerability). The following applies: i.p.
For series [2], the system named is NMDAR. Kind of series: Object recognition test 14 days after CHI. To be noted: for Percent of exploration time at the novel object: 4 h after baseline; for Proportion of time exploring two objects at baseline: baseline with two identical objects. The class given is in vivo, mice.
From the text: Trauma Model. We used 8- to 12-week-old male Sabra mice (30-35 g) kept under controlled temperature and light conditions with food and water available ad libitum. The study was approved by the Institutional Animal Care Committee of the Hebrew University. Experimental CHI was induced by using a modified weight-drop device developed in our laboratory (Chen et al., J. Neurotrauma 13, 557-568 (1996); Yatziv et al., J. Cereb. Blood Flow Metab. 22, 971-978 (2002)). Briefly, after induction of ether anesthesia, a midline longitudinal incision was performed, the skin was retracted and the skull was exposed. The left anterior frontal area was identified and a Teflon tipped cone (2-mm diameter) was placed 1 mm lateral to the midline, in the midcoronal plane. The head was held in place manually and a 75-g weight was dropped on the cone from a height of 18 cm, resulting in a focal injury to the left hemisphere. After trauma, the mice received supporting oxygenation with 95% O2 for no longer than 2 min and were then returned to their cages. Sham controls received anesthesia and skin incision only. For autoradiographic studies, groups of four to five animals per time point were killed 15 min, 1, 4, 8, or 24 h, or 7 days postinjury and brains were quickly removed and frozen on dry ice.
as §1
Evaluation of Performance in the Object Recognition Test. The object recognition test was performed as originally described by Ennaceur and Delacour (Ennaceur & Delacour, Behav. Brain Res. 31, 47-59 (1988)). In the first part of the test (14 days after CHI) mice were placed in the testing cage (a glass aquarium-like transparent box of 60×60 cm) for 1 h habituation. On the following day they were put back into the same cage with two identical objects. The cumulative time spent by the mouse at each of the objects was recorded manually during a 5-min interval by an observer blinded to the treatment received. Four hours later, the mice were reintroduced into the cage, where one of the two objects was replaced by a new one. The time (of 5 min total) spent at each of the objects was recorded. The basic measure is the percent of the total time spent by mice in exploring an object during the testing period, whereby normal healthy rodents will spend relatively more time exploring a new object than a familiar, i.e., “memorized” object.

For the molecule `CN[C@H](CC(=O)O)C(=O)O` [NMDA, N-methyl-D-aspartate], in the series on NMDAR [1], the “dNSS (extent of neurological recovery) compared to vehicle-treated CHI mice” value is on record as “significantly higher; also recorded: significantly accelerated”. Also, in the series with intact mice (doses tested between 20 and 100 mg/kg), the “Doses at which significant mortality was observed” value is listed as “above 60 mg/kg”. Further, the “Behavioural effects and mortality at the lowest dose” value in the series with intact mice (lowest dose of 20-100 mg/kg range (20 mg/kg)) is “hyperactivity and some stereotypy but no convulsions or mortality”. The “Object recognition performance compared to vehicle-treated CHI animals” value in the series with NMDAR [2] (CHI mice, NMDA 20 mg/kg 24 and 48 h postinjury, 14 days after CHI (P<0.0001)) is “significantly higher percentage; also recorded: significantly better”. Besides, the “Percent of exploration time at the novel object” value is “≈ 70%” in the series with NMDAR [2] (CHI mice, NMDA 20 mg/kg 24 and 48 h postinjury, tested 14 days after CHI); “≈ 70%” in the series with NMDAR [2] (intact mice treated with NMDA 20 mg/kg). The “Proportion of time exploring two objects at baseline” value with NMDAR [2] (CHI+NMDA group) and in the series on NMDAR [2] (naive+NMDA group) was “≈ 50%” throughout. Also, the “Effect on object recognition performance of intact (naive) animals” value with NMDAR [2] (intact animals, NMDA 20 mg/kg) is “no effect”.
